According to patent US9796741B2 (Achillion Pharmaceuticals, Inc., priority 2014, dated 2017):

molecular target: Human factor D (Homo sapiens (Human), UniProt P00746); assay: Human Factor D Assay; format: biochemical; conditions: human factor D 80 nM, substrate Z-L-Lys-SBzl, DTNB
In short: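 Serum-purified factor D (80 nM final) preincubated 5 min at room temperature with compound in 50 mM Tris, 1M NaCl, pH 7.5. Z-L-Lys-SBzl and DTNB added at 100 μM each; OD405 followed kinetically over 30 min. IC50 by non-linear regression of % inhibition.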

Chain of Human factor D (P00746 26-253): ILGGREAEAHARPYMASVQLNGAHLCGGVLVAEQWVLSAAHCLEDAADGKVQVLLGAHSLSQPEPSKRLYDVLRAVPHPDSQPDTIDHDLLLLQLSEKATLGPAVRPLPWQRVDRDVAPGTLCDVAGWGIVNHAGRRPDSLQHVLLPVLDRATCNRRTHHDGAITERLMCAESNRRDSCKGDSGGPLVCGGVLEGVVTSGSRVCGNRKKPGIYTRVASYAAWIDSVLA

| Compound | IC50 [µM] |
| --- | --- |
| CC(=O)c1cn(CC(=O)N2C[C@H](F)C[C@H]2C(=O)Nc2cccc(-c3ncccc3Cl)c2F)c2ccc(-c3cnc(C)nc3)cc12 [Compound 164, (2S,4R)-1-(2-(3-acetyl-5-(2-methylpyrimidin-5-yl)-1H-indol-1-yl)acetyl)-N-(3-(3-chloropyridin-2-yl)-2-fluorophenyl)-4-fluoropyrrolidine-2-carboxamide] | < 1 |
| CC(=O)c1cn(CC(=O)N2C[C@H](F)C[C@H]2C(=O)Nc2noc(-c3ccccc3Cl)n2)c2ccc(-c3ccnnc3)cc12 [Compound 182, (2S,4R)-1-(2-(3-acetyl-5-(pyridazin-4-yl)-1H-indol-1-yl)acetyl)-N-(5-(2-chlorophenyl)-1,2,4-oxadiazol-3-yl)-4-fluoropyrrolidine-2-carboxamide] | < 1 |
| CC(=O)c1cn(CC(=O)N2C[C@H](F)C[C@H]2C(=O)Nc2cccc(-c3ccccc3Cl)c2F)c2ccc(-c3cnc(O)nc3)cc12 [Compound 186, (2S,4R)-1-(2-(3-acetyl-5-(2-hydroxypyrimidin-5-yl)-1H-indol-1-yl)acetyl)-N-(2′-chloro-2-fluorobiphenyl-3-yl)-4-fluoropyrrolidine-2-carboxamide] | < 1 |
| COCCNc1ncc(-c2ccc3c(c2)c(C(C)=O)cn3CC(=O)N2C[C@H](F)C[C@H]2C(=O)Nc2cccc(-c3ccccc3Cl)c2F)cn1 [Compound 187, (2S,4R)-1-(2-(3-acetyl-5-(2-(2-methoxyethylamino)pyrimidin-5-yl)-1H-indol-1-yl)acetyl)-N-(2′-chloro-2-fluorobiphenyl-3-yl)-4-fluoropyrrolidine-2-carboxamide] | < 1 |
| CNc1ncc(-c2ccc3c(c2)c(C(C)=O)cn3CC(=O)N2C[C@H](F)C[C@H]2C(=O)Nc2cccc(-c3ccccc3Cl)c2F)cn1 [Compound 188, (2S,4R)-1-(2-(3-acetyl-5-(2-(methylamino)pyrimidin-5-yl)-1H-indol-1-yl)acetyl)-N-(2′-chloro-2-fluorobiphenyl-3-yl)-4-fluoropyrrolidine-2-carboxamide] | < 1 |
